# Key:
# [1] = system: LPS stimulated human PBMC's; assay: PGE2, LTB4 and TNF-α production from LPS stimulated PBMC's co-incubated with NS-398; assay type: cell-based
# Description: The study included 10 patients sustaining either long-bone fracture or ≧15% total body surface burn and 10 control subjects (protocol approved by the Weill Medical College of Cornell University Internal Research Board). Blood samples were obtained within 12 hours of fracture or burn injury. Immune compromised patients including those with cancer, collagen-vascular diseases, HIV or any recent history of steroid or NSAID drug use were excluded from this study. Each patient sample was run simultaneously with a control sample.
# Peripheral venous blood samples were collected into two heparin-EDTA tubes and placed on ice. 6 mL of Histopaque (Sigma Chemical Co., St. Louis, Mo.) was layered into a conical 15 mL tube and 6 mL of undiluted whole blood was gently layered over the top. Tubes were then centrifuged at 1000 rpm for 30 minutes at room temperature. A sterile pasteur pipet was used to gently collect the layer of PBMC's which were then transferred to a new 15 mL tube. Samples were washed twice with 10 mL Ca^+2 and Mg^+2-free Hanks Buffered Salt Solution (Gibco BRL-Life Technologies, Grand Island, N.Y.) and centrifuged at 1100 rpm for 10 minutes. The supernatant was discarded and the pellet resuspended in complete RPMI-1640 (Gibco BRL-Life Technologies, Grand Island, N.Y.) with 10% heat inactivated fetal bovine serum (Gibco BRL-Life Technologies, Grand Island, N.Y.) and 1% antibiotic/antimycotic solution. Cells were then adjusted to a final concentration of 1×10^6 cells/mL and plated. Cells were incubated at 37° C. in a 5% CO2 atmosphere with supernatants harvested at 24 hours and frozen at −70° C. for determination of prostaglandin and cytokine production.
# Serial dilutions were made to co-culture cells with a final concentration of […] NS-398 in a 0.1% DMSO. Control and trauma groups were co-cultured with 0.1% DMSO vehicle for comparisons with NS-398 treated groups.
# [2] = system: LPS stimulated splenic macrophages; assay: Mediator production (PGE2, LTB4, TNF-α, NO, IL-6) by LPS stimulated splenic macrophages 7 days after trauma, NS-398 twice a day over 7 days; assay type: in vivo, BALB/c mice; details: for NO: mean ± SEM
# Description: Animals, Experimental Protocol, NS-398 preparation were as described in Example I. Macrophages were prepared as described initially under “Macrophage Preparation ” in Example I. After lysis of erythrocytes with ammonium chloride solution and centrifugation as described in Example I, macrophages were further prepared by resuspending the pellet in RPMI-1640 (Gibco BRL, Life Technologies Inc) containing 2 mmol/L L-glutamine, 100 U/mL penicillin, 100 μg/mL streptomycin, 0.25 μg/mL amphotericin B, and 10% heat-inactivated fetal calf serum (Gibco BRL, Life Technologies Inc), counted via hemocytometer and diluted to a final concentration of 5×10^6 cells/mL, and plated in 96 well plates in a volume of 0.2 mL per well. After allowing macrophages to adhere for 2 hours, the remaining cells were suctioned off and the macrophages were cultured in the +/−1 ng LPS 055:B5 (Sigma, St. Louis, Mo.) per mL at 37° C. in 5% carbon dioxide incubators. Supernatants were harvested at 24 hours and stored at −70° C. until analysis for batch enzyme-linked immunosorbent assay processing to determine prostaglandin and cytokine production.
# NO was measured indirectly by NO2^− concentration using the Greiss reagent system (Promega, Madison, Wis). Protein was quantified using the BCA protein reagent (Pierce, Rockford, Ill.) and all measurements were normalized to protein content per well.
# BALB/C mice (n=8/group) were given 10mg/kg NS398 intraperitoneally BID for 7 days, starting immediately after sham injury or trauma (femur fracture+40% hemorrhage). Four groups, sham+placebo (C); sham+NS398 (CN); trauma+placebo (T); or trauma+NS398 (TN) were studied. On day 7 after trauma, mice were sacrificed and splenic macrophages evaluated for PGE2, TNF-α and NO production (via Student's t-test). In a separate study, mice (n=10-11/group) were traumatized and given NS398 for 7 days. On day 7, cecal ligation and puncture was performed, and mice evaluated for survival over 3 weeks (via Log-rank test).
# [3] = C + NS398, 10 mg/kg i.p. BID for 7 days
# [4] = T + NS398, 10 mg/kg i.p. BID for 7 days
# [5] = injured mice + NS-398 over 7 days vs untreated injured, P<0.05
compound,measurement,setting,value
"CS(=O)(=O)Nc1ccc([N+](=O)[O-])cc1OC1CCCCC1 [NS-398, N-(2-cyclohexyloxy-4-nitrophenyl)methanesulfonamide]",TNF-α production,"[1]; PBMC's after injury, co-culture with NS-398, P<0.05",significantly decreased production
same,PGE2 production,"[1]; PBMC's of injured patients, co-culture with 10μM NS-398, T vs TN P<0.001",significantly reduced the production of PGE2
same,LTB4 production,"[1]; control cells, co-culture with NS-398, P<0.05",significant increase in the production of LTB4
same,LTB4 production,"[1]; trauma cells, co-culture with NS-398, P<0.004",significant increase in the production of LTB4
same,TNF-α,[2]; [3],2.6 ± 0.3 pg/μg protein
same,NO,[2]; [3],54.8 ± 2.1 nmol/μg protein
same,LTB4 levels (in words),"[2]; NS-398 given after injury, over 7 days",did not restore LTB4 levels to those seen in control
same,TNF-α,[2]; [4],2.6 ± 0.3 pg/μg protein
same,NO,[2]; [4],48.0 ± 3.3 nmol/μg protein
same,PGE2 production,"[2]; injured mice + NS398 (TN), 10 mg/kg i.p. BID for 7 days",3.1±0.4 pg/μg protein
same,IL-6 production (in words),[2]; [5],significantly attenuated production
same,NO production (in words),[2]; [5],significantly attenuated production
same,TNF-α production (in words),[2]; [5],significantly attenuated production
same,PGE2 production by splenocytes/macrophages (in words),"[2]; traumatized mice + NS-398 over 7 days, P<0.05",produce significantly less PGE2

# — US20020006915A1, “Use of COX-2 inhibitors to treat sepsis, complications thereof, and EP receptor modulation” (priority 2000, published 2002)
